What was measured:
S. pneumoniae D39V [1] = experiment: Bliss interaction score (quartile over a dose matrix) (fitness difference); higher = more antagonism (negative = synergy)
Procedure, shortened: (§1)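 Growth was read as OD595 when cultures entered stationary phase, and each value was divided by the plate's robust no-drug mean and capped at 1. This normalised ratio is the fitness value, and fitness for each single drug came from the combination data. The Bliss score subtracts the expected fitness, taken as the product, from the observed fitness and is given as quartiles across technical, biological and donor/recipient replicates.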

B. subtilis 168 [2] = experiment: as above
Procedure, shortened: as §1

S. aureus Newman = experiment: as above
Procedure, shortened: as §1

S. aureus DSM 20231 = experiment: as above
Procedure, shortened: as §1

S. pneumoniae D39V [3] = experiment: fitness (endpoint OD595 vs no drug) (fraction); higher = more growth
Procedure, shortened: (§2)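 Fitness expresses the optical density reached at the stationary-phase transition as a fraction of the robust mean of no-drug control wells. It is capped at 1. Measurements were OD595 every 30 min for 14 h at 37 °C after inoculation of 384-well plates at OD595 0.01 (30 µl, or 55 µl for S. pneumoniae), minus the first reading.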

B. subtilis 168 [4] = experiment: as above
Procedure, shortened: as §2
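Wherever Bliss interaction score (quartile over a dose matrix) is given: first quartile when negative (synergy) and third quartile when positive (antagonism).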
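Wherever fitness (endpoint OD595 vs no drug) is given: OD595 on entry to stationary phase over no-drug wells; at most 1.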

C[C@H]1c2cccc(O)c2C(=O)C2=C(O)[C@]3(O)C(=O)C(C(N)=O)=C(O)[C@@H](N(C)C)[C@@H]3[C@@H](O)[C@@H]21 [Doxycycline] + Cc1onc(-c2ccccc2)c1C(=O)N[C@@H]1C(=O)N2[C@@H]1SC(C)(C)[C@@H]2C(=O)O [Oxacillin]
Bliss interaction score (S. pneumoniae D39V [1]): 0.159 | Bliss interaction score (B. subtilis 168 [2]): 0.0493 | Bliss interaction score (S. aureus Newman): -0.0136 | Bliss interaction score (S. aureus DSM 20231): 0.0402 | fitness (S. pneumoniae D39V [3]; first compound 0.003875 µg/mL, partner 0.01 µg/mL, one replicate): ≥ 1 | fitness (S. pneumoniae D39V [3]; first compound 0.003875 µg/mL, partner 0.02 µg/mL, one replicate): 0.978 | fitness (S. pneumoniae D39V [3]; first compound 0.003875 µg/mL, partner 0.04 µg/mL, one replicate): 0.357 | fitness (S. pneumoniae D39V [3]; first compound 0.00775 µg/mL, partner 0.01 µg/mL, one replicate): ≥ 1 | fitness (S. pneumoniae D39V [3]; first compound 0.00775 µg/mL, partner 0.02 µg/mL, one replicate): 0.959 | fitness (S. pneumoniae D39V [3]; first compound 0.00775 µg/mL, partner 0.04 µg/mL, one replicate): 0.571 | fitness (S. pneumoniae D39V [3]; first compound 0.0155 µg/mL, partner 0.01 µg/mL): 0.957 | fitness (S. pneumoniae D39V [3]; first compound 0.0155 µg/mL, partner 0.02 µg/mL): 0.921 | fitness (S. pneumoniae D39V [3]; first compound 0.031 µg/mL, partner 0.01 µg/mL): 0.917 | fitness (S. pneumoniae D39V [3]; first compound 0.031 µg/mL, partner 0.02 µg/mL): 0.885 | fitness (S. pneumoniae D39V [3]; first compound 0.062 µg/mL, partner 0.01 µg/mL): 0.859 | fitness (S. pneumoniae D39V [3]; first compound 0.062 µg/mL, partner 0.02 µg/mL): 0.801 | fitness (S. pneumoniae D39V [3]; first compound 0.062 µg/mL, partner 0.04 µg/mL): 0.71 | fitness (B. subtilis 168 [4]; first compound 0.02 µg/mL, partner 0.002 µg/mL): 0.885 | fitness (B. subtilis 168 [4]; first compound 0.02 µg/mL, partner 0.004 µg/mL): 0.933 | fitness (B. subtilis 168 [4]; first compound 0.02 µg/mL, partner 0.0078 µg/mL, one replicate): ≥ 1 | fitness (B. subtilis 168 [4]; first compound 0.02 µg/mL, partner 0.008 µg/mL): 0.882 | fitness (B. subtilis 168 [4]; first compound 0.02 µg/mL, partner 0.0155 µg/mL, one replicate): ≥ 1 | fitness (B. subtilis 168 [4]; first compound 0.02 µg/mL, partner 0.031 µg/mL, one replicate): ≥ 1 | fitness (B. subtilis 168 [4]; first compound 0.02 µg/mL, partner 0.075 µg/mL, one replicate): 0.661 | fitness (B. subtilis 168 [4]; first compound 0.02 µg/mL, partner 0.15 µg/mL, one replicate): 0.0438 | fitness (B. subtilis 168 [4]; first compound 0.02 µg/mL, partner 0.3 µg/mL, one replicate): 0.0604 | fitness (B. subtilis 168 [4]; first compound 0.04 µg/mL, partner 0.002 µg/mL): 0.762 | fitness (B. subtilis 168 [4]; first compound 0.04 µg/mL, partner 0.004 µg/mL): 0.771 | fitness (B. subtilis 168 [4]; first compound 0.04 µg/mL, partner 0.0078 µg/mL, one replicate): 0.858 | fitness (B. subtilis 168 [4]; first compound 0.04 µg/mL, partner 0.008 µg/mL): 0.716 | fitness (B. subtilis 168 [4]; first compound 0.04 µg/mL, partner 0.0155 µg/mL, one replicate): 0.843 | fitness (B. subtilis 168 [4]; first compound 0.04 µg/mL, partner 0.031 µg/mL, one replicate): 0.843 | fitness (B. subtilis 168 [4]; first compound 0.04 µg/mL, partner 0.075 µg/mL, one replicate): 0.576 | fitness (B. subtilis 168 [4]; first compound 0.04 µg/mL, partner 0.15 µg/mL, one replicate): 0.025 | fitness (B. subtilis 168 [4]; first compound 0.04 µg/mL, partner 0.3 µg/mL, one replicate): 0.0223 | fitness (B. subtilis 168 [4]; first compound 0.08 µg/mL, partner 0.002 µg/mL): 0.419 | fitness (B. subtilis 168 [4]; first compound 0.08 µg/mL, partner 0.004 µg/mL): 0.422 | fitness (B. subtilis 168 [4]; first compound 0.08 µg/mL, partner 0.0078 µg/mL, one replicate): 0.721 | fitness (B. subtilis 168 [4]; first compound 0.08 µg/mL, partner 0.008 µg/mL): 0.372 | fitness (B. subtilis 168 [4]; first compound 0.08 µg/mL, partner 0.0155 µg/mL, one replicate): 0.742 | fitness (B. subtilis 168 [4]; first compound 0.08 µg/mL, partner 0.031 µg/mL, one replicate): 0.716 | fitness (B. subtilis 168 [4]; first compound 0.08 µg/mL, partner 0.075 µg/mL, one replicate): 0.102 | fitness (B. subtilis 168 [4]; first compound 0.08 µg/mL, partner 0.15 µg/mL, one replicate): 0.0327 | fitness (B. subtilis 168 [4]; first compound 0.08 µg/mL, partner 0.3 µg/mL, one replicate): 0.0213

C[C@H]1c2cccc(O)c2C(=O)C2=C(O)[C@]3(O)C(=O)C(C(N)=O)=C(O)[C@@H](N(C)C)[C@@H]3[C@@H](O)[C@@H]21 [Doxycycline] + O=C(O[C@@H]1Cc2c(O)cc(O)cc2O[C@@H]1c1cc(O)c(O)c(O)c1)c1cc(O)c(O)c(O)c1 [EGCG]
Bliss interaction score (S. pneumoniae D39V [1]): -0.0707 | Bliss interaction score (B. subtilis 168 [2]): 0.147 | Bliss interaction score (S. aureus Newman): 0.088 | Bliss interaction score (S. aureus DSM 20231): 0.0387 | fitness (S. pneumoniae D39V [3]; first compound 0.003875 µg/mL, partner 12.5 µg/mL, one replicate): 0.954 | fitness (S. pneumoniae D39V [3]; first compound 0.003875 µg/mL, partner 25 µg/mL, one replicate): 0.985 | fitness (S. pneumoniae D39V [3]; first compound 0.003875 µg/mL, partner 50 µg/mL, one replicate): 0.995 | fitness (S. pneumoniae D39V [3]; first compound 0.00775 µg/mL, partner 12.5 µg/mL, one replicate): 0.919 | fitness (S. pneumoniae D39V [3]; first compound 0.00775 µg/mL, partner 25 µg/mL, one replicate): 0.966 | fitness (S. pneumoniae D39V [3]; first compound 0.00775 µg/mL, partner 50 µg/mL, one replicate): 0.964 | fitness (S. pneumoniae D39V [3]; first compound 0.0155 µg/mL, partner 12.5 µg/mL): 0.85 | fitness (S. pneumoniae D39V [3]; first compound 0.0155 µg/mL, partner 25 µg/mL): 0.864 | fitness (S. pneumoniae D39V [3]; first compound 0.0155 µg/mL, partner 50 µg/mL): 0.881 | fitness (S. pneumoniae D39V [3]; first compound 0.031 µg/mL, partner 25 µg/mL): 0.755 | fitness (B. subtilis 168 [4]; first compound 0.02 µg/mL, partner 6.25 µg/mL): 0.901 | fitness (B. subtilis 168 [4]; first compound 0.04 µg/mL, partner 6.25 µg/mL): 0.767 | fitness (B. subtilis 168 [4]; first compound 0.08 µg/mL, partner 6.25 µg/mL): 0.53 | fitness (B. subtilis 168 [4]; first compound 0.08 µg/mL, partner 12.5 µg/mL): 0.315 | fitness (B. subtilis 168 [4]; first compound 0.08 µg/mL, partner 25 µg/mL): 0.0902

Source: the supplement of paper PMC10627819
